Assay results published in patent US20110185440A1, “CISD2-Knockout Mice and Uses Thereof” (NATIONAL YANG-MING UNIVERSITY, priority 2006, published 2011).

Key:
[1] = system: Cisd2 knockout mice; assay: Body weight of Cisd2 knockout mice after oral resveratrol treatment; format: in vivo, mouse; conditions: 30 mg/kg/day oral from 4- to 12-week old; effect after 8-week old; P<0.05 vs untreated control
Method: (17A) Oral administration of resveratrol (30 mg/kg/day) to Cisd2 knockout mice from 4- to 12-week old. (17B) To analyze the body weight of the Cisd2 knockout mice after resveratrol treatment and compare to 4-week old wild-type mice. Values represent mean±s.d from at least three male samples. Asterisks indicate statistically significant differences compare with untreated control. (*, P<0.05) Resveratrol (30 mg/kg/day) was administered by oral to Cisd2 knockout mice from 4- to 12-week old. The body weight of the Cisd2 knockout mice was analyzed after resveratrol treatment and comparing to 4-week old wild-type mice (FIG. 17).

[2] = system: Cisd2 knockout mice; assay: Muscle and neuron degeneration in Cisd2 knockout mice after resveratrol treatment (H&E staining, TEM); format: in vivo, mouse; conditions: 30 mg/kg/day oral from 4- to 12-week old
Source text: (18A-F) H&E staining of transverse sections of skeletal muscle dissected from the 12-week old, male Cisd2 knockout mice with (18A) untreated control, (18B) resveratrol or (18C) H2O treatment, and (18D-F) relative wild-type control. Black arrowheads indicate degenerated transverse fibers. Blue arrows indicate angular fibres which are the evidences of muscle atrophy caused by neuron degeneration. (18G) The standard quantification score of muscle atrophy. (18H) The quantification of degenerative muscle fiberin under resveratrol treated or not. About 1000 muscle fibre in random fields of H&E staining slides were examined for each mouse. Values represent mean±s.d from at least three male samples. […] Myelin sheath degeneration (asterisks) was detected only in the Cisd2 knockout mice. […] (18U) The standard quantification score of axon and myelin sheath degeneration. (18V) The quantification of degenerative sciatic nerve in wild-type, Cisd2 knockout and Cisd2 knockout mice with resveratrol treatment, respectively. […] The standard quantification score of muscle atrophy was prepared. The quantification of degenerative muscle fiberin was measured under resveratrol treated or not. […] Myelin sheath degeneration was detected only in the Cisd2 knockout mice. The standard quantification score of axon and myelin sheath degeneration was created. […]

SMILES: Oc1ccc(C=Cc2cc(O)cc(O)c2)cc1 [Resveratrol]
- body weight of Cisd2 knockout mice [1]: significant reverse
- muscle degeneration of the Cisd2 knockout mice ([2]; 12-week old male mice, skeletal muscle H&E, skeletal and cardiac muscle ultrastructure): partial rescue
- neuron degeneration of the Cisd2 knockout mice ([2]; 12-week old mice, sciatic nerve TEM, axon and myelin sheath degeneration): partial rescue
